Columns and labels:
[1] = tested on: p53^tsneo transfected DP16-1 cells; experiment: Viability of p53^tsneo transfectants in media containing 1.6% DMSO; assay type: cell-based, mouse; settings: 37.5° C., logarithmically growing transfectants
Protocol: DP16-1 MEL cells were grown in Dulbecco modified minimal essential medium (DMEM) supplemented with 10% calf serum, 2 mM glutamine, 100 U of penicillin per ml, and 100 μg of […] per ml. DNA transfections were performed by electroporation (Prochownik et al., supra). Transfection mixes consisted of 1×10^7 cells in 400 μl transfection buffer (272 mM sucrose, 7 mM phosphate (pH 7.4), 1 mM MgCl2) with either 10 μg p53^tsneo, or 10 μg pSV-2neo, linearized with Bam HI. Transfected cells were selected in media containing 1 mg/ml geneticin (G418; GIBCO). Single-cell clones were isolated by limiting cell dilution in 96-well microtiter plates. To characterize the consequences of enforced expression of p53 on differentiation, logarithmically growing transfectants were exposed to media containing 1.6% dimethyl sulfoxide (DMSO) and incubated at 37.5° C. Media was changed every other day. Cells underwent growth arrest and subsequently died over a period of 48-96 hours (FIG. 8A; DP16-1 cells, ______, p53^tsneo transfected DP16-1 cells, - - -, and DP16-1 cells co-transfected with c-myb and p53^tsneo, _._._). Viable cells were isolated by centrifugation through Ficoll-paque (Pharmacia). […] This is in contrast to untransfected control DP16-1 cells which, when grown in media containing DMSO, downregulate c-myb mRNA and differentiate while remaining viable (FIG. 8A & 8B). […]

[2] = tested on: p53^tsneo clones; experiment: DMSO-induced differentiation of p53^tsneo clones, benzidine staining; assay type: cell-based, mouse; settings: 5 days exposure to 1.6% DMSO at 37.5° C., viable cells isolated through Ficoll-paque
Protocol: To characterize the consequences of enforced expression of p53 on differentiation, logarithmically growing transfectants were exposed to media containing 1.6% dimethyl sulfoxide (DMSO) and incubated at 37.5° C. Media was changed every other day. Cells underwent growth arrest and subsequently died over a period of 48-96 hours (FIG. 8A; DP16-1 cells, ______, p53^tsneo transfected DP16-1 cells, - - -, and DP16-1 cells co-transfected with c-myb and p53^tsneo, _._._). Viable cells were isolated by centrifugation through Ficoll-paque (Pharmacia). […] This is in contrast to untransfected control DP16-1 cells which, when grown in media containing DMSO, downregulate c-myb mRNA and differentiate while remaining viable (FIG. 8A & 8B). As expected, the p53^ts protein was located in the cytoplasm of the cells growing at 37.5° C. in the absence of DMSO (FIG. 9A, panel a; C4 p53^tsneo DP16-1 cells). […] Thus despite the fact that the cells were grown at 37.5° C., DMSO caused the p53^ts to behave as wild-type p53 tumor suppressor and induced apoptotic cell death. MEL cells can also exit the cell cycle by being stimulated to terminally differentiate. DMSO was used to induce differentiation of p53^tsneo clones at 37.5° C. After 5 days exposure to 1.6% DMSO, viable cells were isolated by centrifugation through Ficoll-paque. […] These cells were placed at 32.5° C. and viability monitored. […]

[3] = tested on: p53^tsneo/pMbm1-dhfr co-transfectants (DP16-1 MEL cells); experiment: Viability of amplified p53^tsneo/pMbm1-dhfr co-transfectants in 1.6% DMSO; assay type: cell-based, mouse; settings: amplified c-myb cultures
Description: To determine how c-myb and p53 interact during MEL cell growth and differentiation, DP16-1 cells were co-transfected with p53^tsneo and pMbm1-dhfr, which encodes a full-length c-myb cDNA under the control of an SV40 promoter (Clarke, et al., supra). […] (FIG. 9A; panel c, C5a p53^tsneo/c-myb transfected DP16-1 cells; panel d, C5a cells). Instead, these cells proliferated for 2-3 days, and then arrested coincident with an increase in benzidine-positive cells (FIG. 11). Viability decreased only after the majority of cells had differentiated. Increased expression of c-myb was selected for by growing transfected cells in higher concentrations of methotrexate (Clarke et al., supra).

[4] = tested on: c-myc transfected DP16-1 cells; experiment: DMSO-induced differentiation of c-myc transfected DP16-1 cells, benzidine staining; assay type: cell-based, mouse; settings: two days of exposure to medium containing DMSO
Description: (§1) MEL cell lines invariability contain mutations of the p53 tumor suppressor gene and express either negligible or mutant p53 protein. During MEL differentiation there is a biphasic decline in expression of the c-myc oncogene although enforced expression of c-myc blocks this differentiation. To determine the relationship between mutant p53 and c-myc in cell differentiation, DP16-1 cells (which have deleted both p53 alleles) were transfected with an amplifiable plasmid vector containing a full-length mouse c-myc cDNA with or without plasmid vector containing a mutant p53 cDNA (p53^pro193). The exogenous c-myc cDNA is transcribed in MEL cells and results in increased expression of c-myc mRNA and protein during DMSO-induced differentiation. Extent of differentiation was monitored by benzidine staining (FIGS. 17A and 17B). When MEL cells are exposed to DMSO, differentiation normally occurs over a five day period. In contrast to the parental DP16-1 cells or DP16-1 cells transfected with pSV2LZquad, c-myc transfected DP16-1 cells or underwent accelerated differentiation. […] Furthermore, c-myc transfected DP16-1 cells stopped growing and eventually lost viability when grown in medium containing 1.6% DMSO. Coincident expression of p53^pro193 with c-myc abolished the accelerated DMSO-induced differentiation seen in cells which expressed c-myc alone.

[5] = tested on: parental DP16-1 cells; experiment: DMSO-induced differentiation of parental DP16-1 cells, benzidine staining; assay type: cell-based, mouse; settings: two days of exposure to medium containing DMSO
Description: as §1

[6] = tested on: CML cells in bone marrow cell culture; experiment: Purging CML cells from low density mononuclear bone marrow cells with antisense myb; assay type: cell-based; settings: 40 μg/ml, culture changed two times a day for 1-to-three days, after MIP-1α 300 μg/ml for 24 hours
Description: The most successful purging of bone marrow cells includes from one-to-three non-overlapping techniques. CML cells display antigens which are not present on the hematopoietic stem cells. A large majority of the CML cells that contaminant Marrow samples can initially be removed using antibodies that recognize these CML-specific antigens. Antibodies that can be used include specificities directed to one or more of the following antigens: CD15, CD33, Glycophorin A, CD10, CD2, CD4 and CD8. Antibody-cell conjugates can be removed by either flow cytometry, immuno-magnetic beads or compliment, for example. The remaining CML cells can be killed by incubating the enriched culture in the presence of c-myb antisense oligonucleotides.
Briefly, mononuclear cells will be isolated from a 5 ml bone marrow aspirate by centrifuging through a ficol-hypaque density gradient. The isolated bone marrow cells (1×10^5 CD34+ progenitor cells) are then cultured in Dexter medium with IL3, SGF and EPO and macrophage inflammatory factor (MIP-1α; 300 μg/ml) for 24 hours and then are cultured in medium containing c-myb antisense oligonucleotides. MIP-1α arrests normal hematopoietic cells in G0 and these cells will therefore be resistant to c-myb antisense. The CML cells, however, are unresponsive to MIP-1α and will continue to cycle. […]

[7] = Viability of G1-arrested p53tsneo clones (mimosine growth arrest); assay type: cell-based; settings: mouse, clones C9, C2 and C1 (p53tsneo transfected DP16-1 MEL cells); mimosine 300 μM, late G1 arrest at 37.5° C., after 3-4 days of arrest
Protocol: (§2) The relationship of p53 induced cell death to the cell cycle was studied in transfected clone C9. Clone C9 cells were synchronized in G0/G1 by density arrest (typically at a concentration of 1-2×10^6 cells/ml) for 48-72 hours at 37.5° C. Cells were stimulated to begin cycling by replating into fresh media at a 1:10 split ratio. Growth arrest with mimosine (Sigma) was accomplished by the addition of 300 μM mimosine to logarithmically growing cells for a period of 24 hours.
(§3) To rule out that G1 arrest alone induces cell death, clones C9, C2 and C1 were growth arrested with either mimosine (300 μM) (Watson et al., Cytometry 12:242 (1991)) or isoleucine deprivation (Heintz et al., Proc. Natl. Acad. Sci. USA 79:4083 (1982)) at 37.5° C., both of which result in late Gi arrest.

[8] = tested on: clones C9, C2 and C1 (p53^tsneo transfected DP16-1 MEL cells); experiment: as above; assay type: cell-based; settings: mouse, 36 h, 300 μM
Protocol: as §2, §3

## C[S+](C)[O-] [DMSO, dimethyl sulfoxide]
[1]
  Period over which cells died after growth arrest: 48 to 96 h
[2]
  Benzidine positivity: 70-80%
[3]
  Time to loss of viability: 10 to 14 days
[4]
  Cells differentiated: 70-80%
[5]
  Differentiation: remained largely undifferentiated

## c-myb antisense: c-myb antisense oligonucleotide 5′-GTGCCGGGGTCTTCGGGC-3′ (chemistry not given here)
[6]
  Cells remaining viable in culture: only the normal hematopoietic cells

## NC(Cn1ccc(=O)c(O)c1)C(=O)O (centres unmarked) [mimosine]
[7]
  viability at 300 μM: ~70%
[8]
  Viability: less than 5%
